Assays:
[1] = target: T1, Vasoactive intestinal polypeptide receptor 1 (Homo sapiens, UniProt P32241); assay type: cell membranes, Membrane; details: ht-29; further: in other assays of this panel Not Active means under 50% inhibition at 10 µM
T1 sequence (P32241 whole entry): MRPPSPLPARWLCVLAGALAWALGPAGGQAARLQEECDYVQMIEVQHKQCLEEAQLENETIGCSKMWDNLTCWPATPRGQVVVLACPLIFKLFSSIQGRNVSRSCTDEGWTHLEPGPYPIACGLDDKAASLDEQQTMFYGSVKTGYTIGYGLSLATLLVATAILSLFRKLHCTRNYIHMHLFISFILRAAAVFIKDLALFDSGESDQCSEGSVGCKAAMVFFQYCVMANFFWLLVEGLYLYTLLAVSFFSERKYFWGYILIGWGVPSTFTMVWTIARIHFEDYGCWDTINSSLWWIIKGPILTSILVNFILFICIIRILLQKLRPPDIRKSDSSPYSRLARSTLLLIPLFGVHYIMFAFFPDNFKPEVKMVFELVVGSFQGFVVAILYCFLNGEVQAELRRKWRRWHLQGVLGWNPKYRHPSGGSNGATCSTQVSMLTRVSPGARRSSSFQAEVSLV

[2] = DRUGMATRIX: Calcium Channel Type L, Phenylalkylamine radioligand binding (ligand: [3H] (-)-Desmethoxyverapamil (D-888)); assay type: cell membranes, Rattus norvegicus, Wistar, Brain, Membrane; details: Not Active = under 50% inhibition at 10 µM
[3] = target: C-C chemokine receptor type 5 (Homo sapiens, UniProt P51681); assay type: cell membranes, Membrane; details: hek293; further: in other assays of this panel Not Active means under 50% inhibition at 10 µM
[4] = DRUGMATRIX: Glutamate, NMDA, Agonism radioligand binding (ligand: [3H] CGP-39653); assay type: cell membranes, Rattus norvegicus, Wistar, Cerebral cortex, Membrane; details: Not Active = under 50% inhibition at 10 µM
Melanocortin receptor 3 = Melanocortin receptor 3 (Homo sapiens, UniProt P41968); assay type: cell membranes, HEK293, Membrane; details: hek293; further: in other assays of this panel Not Active means under 50% inhibition at 10 µM
[5] = target: T2, Amine oxidase [flavin-containing] A (Homo sapiens, UniProt P21397); test: DRUGMATRIX: Monoamine Oxidase MAO-A enzyme inhibition (substrate: Kynuramine); parameters: species or system BTI-TN-5B1-4; details: bti-tn-5b1-4; Not Active = under 50% inhibition at 10 µM
T2 sequence (P21397 whole entry): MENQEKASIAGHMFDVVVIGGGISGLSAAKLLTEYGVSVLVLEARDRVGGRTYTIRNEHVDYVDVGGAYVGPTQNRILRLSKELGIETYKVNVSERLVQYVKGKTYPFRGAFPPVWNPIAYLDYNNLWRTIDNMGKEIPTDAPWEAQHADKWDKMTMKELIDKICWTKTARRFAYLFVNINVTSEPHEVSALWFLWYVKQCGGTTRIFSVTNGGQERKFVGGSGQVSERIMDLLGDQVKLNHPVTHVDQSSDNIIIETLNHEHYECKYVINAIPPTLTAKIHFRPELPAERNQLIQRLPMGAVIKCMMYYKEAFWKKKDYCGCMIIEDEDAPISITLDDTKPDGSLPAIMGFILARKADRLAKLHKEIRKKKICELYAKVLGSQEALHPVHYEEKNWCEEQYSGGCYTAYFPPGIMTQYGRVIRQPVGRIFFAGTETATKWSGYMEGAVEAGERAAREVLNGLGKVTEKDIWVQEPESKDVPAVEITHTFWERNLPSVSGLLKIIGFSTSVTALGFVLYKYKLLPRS

[6] = target: Mitogen-activated protein kinase 14 (Homo sapiens, UniProt Q16539); parameters: species or system Escherichia coli;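 further: inhibition of p38alpha enzyme activity in a biochemical kinase assay, with myelin basic protein serving as substrate; in other assays of this panel Not Active means under 50% inhibition at 10 µM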
Cytochrome P450 2C9 = Cytochrome P450 2C9 (Homo sapiens, UniProt P11712); details: bti-tn-5b1-4; further: in other assays of this panel Not Active means under 50% inhibition at 10 µM
Sequence of Cytochrome P450 2C9 (P11712 whole entry): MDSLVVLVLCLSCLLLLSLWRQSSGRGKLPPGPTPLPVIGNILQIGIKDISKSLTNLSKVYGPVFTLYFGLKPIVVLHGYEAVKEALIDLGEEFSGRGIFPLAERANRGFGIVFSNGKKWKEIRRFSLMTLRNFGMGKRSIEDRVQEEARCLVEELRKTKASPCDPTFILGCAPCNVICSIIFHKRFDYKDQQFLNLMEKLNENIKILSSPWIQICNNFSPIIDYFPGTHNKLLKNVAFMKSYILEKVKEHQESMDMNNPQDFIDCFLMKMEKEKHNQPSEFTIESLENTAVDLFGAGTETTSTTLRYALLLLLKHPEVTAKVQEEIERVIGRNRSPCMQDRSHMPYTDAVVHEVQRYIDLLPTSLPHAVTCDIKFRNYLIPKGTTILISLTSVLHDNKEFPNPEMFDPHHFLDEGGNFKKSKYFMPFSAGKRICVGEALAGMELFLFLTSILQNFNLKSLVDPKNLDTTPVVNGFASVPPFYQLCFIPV

Sequence of C-C chemokine receptor type 5 (P51681 whole entry): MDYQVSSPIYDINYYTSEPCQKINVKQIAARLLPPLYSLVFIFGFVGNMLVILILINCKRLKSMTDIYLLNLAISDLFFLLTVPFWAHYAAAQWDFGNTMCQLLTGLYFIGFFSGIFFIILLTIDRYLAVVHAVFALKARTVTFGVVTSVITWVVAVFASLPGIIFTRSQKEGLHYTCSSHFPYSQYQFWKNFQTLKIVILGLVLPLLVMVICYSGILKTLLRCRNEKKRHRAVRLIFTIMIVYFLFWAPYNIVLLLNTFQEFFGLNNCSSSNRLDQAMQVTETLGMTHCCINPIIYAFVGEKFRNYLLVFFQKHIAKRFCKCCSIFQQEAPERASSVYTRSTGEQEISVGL
Sequence of Melanocortin receptor 3 (P41968 whole entry): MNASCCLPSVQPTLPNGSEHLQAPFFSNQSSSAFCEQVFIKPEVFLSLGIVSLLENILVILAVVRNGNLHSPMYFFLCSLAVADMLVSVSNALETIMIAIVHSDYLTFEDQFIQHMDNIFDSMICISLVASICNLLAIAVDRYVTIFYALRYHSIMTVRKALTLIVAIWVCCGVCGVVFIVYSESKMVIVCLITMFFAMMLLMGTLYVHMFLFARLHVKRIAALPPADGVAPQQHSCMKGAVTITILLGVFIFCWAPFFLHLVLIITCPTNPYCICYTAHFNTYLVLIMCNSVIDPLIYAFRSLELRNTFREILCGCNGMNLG
Sequence of Mitogen-activated protein kinase 14 (Q16539 whole entry): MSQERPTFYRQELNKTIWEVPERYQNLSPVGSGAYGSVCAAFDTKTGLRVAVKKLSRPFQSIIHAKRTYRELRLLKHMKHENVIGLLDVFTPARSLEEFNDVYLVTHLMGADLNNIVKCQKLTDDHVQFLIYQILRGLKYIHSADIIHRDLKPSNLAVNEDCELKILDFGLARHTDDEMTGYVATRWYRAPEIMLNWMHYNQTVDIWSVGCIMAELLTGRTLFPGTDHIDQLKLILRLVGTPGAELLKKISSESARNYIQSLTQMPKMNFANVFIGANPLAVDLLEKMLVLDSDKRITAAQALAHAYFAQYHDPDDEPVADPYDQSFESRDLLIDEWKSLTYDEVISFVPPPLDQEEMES

Compound	IC50 [1]	IC50 [2]	Ki [2]	IC50 [3]	IC50 [4]	Ki [4]	IC50 (Melanocortin receptor 3)	IC50 [5]	IC50 ([6]; read-out: IC50) [µM]	IC50 [6]	IC50 (Cytochrome P450 2C9)	Ki (Cytochrome P450 2C9)	IC50 ([2]; read-out: IC50) [µM]	Ki ([2]; read-out: Ki) [µM]
O=C(c1ccccc1C(F)(F)F)N1CCC(Cc2ccccc2)CC1	Not Active	Not Active	Not Active	Not Active	Not Active	Not Active	Not Active	Not Active	0.715	–	–	–	–	–
O=C/C=C/c1ccccc1	Not Active	Not Active	Not Active	Not Active	Not Active	Not Active	Not Active	Not Active	–	Not Active	Not Active	Not Active	–	–
Nc1ccc2c3c(cccc13)C(=O)NC2=O	Not Active	Not Active	Not Active	Not Active	Not Active	Not Active	Not Active	Not Active	–	Not Active	Not Active	Not Active	–	–
COc1ccc(C(=O)N2CCCC2=O)cc1	Not Active	Not Active	Not Active	Not Active	Not Active	Not Active	Not Active	Not Active	–	Not Active	Not Active	Not Active	–	–
NCCCC(O)(P(=O)(O)O)P(=O)(O)O [ALENDRONIC ACID]	Not Active	Not Active	Not Active	Not Active	Not Active	Not Active	Not Active	Not Active	–	Not Active	–	–	–	–
Cn1c(=O)c2[nH]cnc2n(C)c1=O.Cn1c(=O)c2[nH]cnc2n(C)c1=O.NCCN [AMINOPHYLLINE]	Not Active	Not Active	Not Active	Not Active	Not Active	Not Active	Not Active	Not Active	–	Not Active	–	–	–	–
CC1(C)S[C@@H]2[C@H](NC(=O)[C@H](N)c3ccccc3)C(=O)N2[C@H]1C(=O)O [AMPICILLIN]	Not Active	Not Active	Not Active	Not Active	Not Active	Not Active	Not Active	Not Active	–	Not Active	–	–	–	–
CN1[C@@H]2CC[C@H]1C[C@@H](OC(=O)C(CO)c1ccccc1)C2 (stereo partly drawn) [ATROPINE]	Not Active	–	–	Not Active	Not Active	Not Active	Not Active	Not Active	–	Not Active	–	–	–	–
CC(=O)Oc1ccc(C(c2ccc(OC(C)=O)cc2)c2ccccn2)cc1 [BISACODYL]	Not Active	Not Active	Not Active	Not Active	Not Active	Not Active	Not Active	Not Active	–	Not Active	–	–	–	–
C[C@@H]1C[C@H]2[C@@H]3CCC4=CC(=O)C=C[C@]4(C)[C@@]3(F)[C@@H](O)C[C@]2(C)[C@@]1(O)C(=O)CO [DEXAMETHASONE]	Not Active	Not Active	Not Active	Not Active	Not Active	Not Active	Not Active	Not Active	–	Not Active	–	–	–	–
C#C[C@]1(OC(C)=O)CC[C@H]2[C@@H]3CCC4=C[C@@H](OC(C)=O)CC[C@@H]4[C@H]3CC[C@@]21C [ETHYNODIOL DIACETATE]	Not Active	Not Active	Not Active	Not Active	Not Active	Not Active	Not Active	–	–	Not Active	Not Active	Not Active	–	–
COc1cc([C@@H]2c3cc4c(cc3[C@@H](O[C@@H]3O[C@@H]5CO[C@@H](C)O[C@H]5[C@H](O)[C@H]3O)[C@H]3COC(=O)[C@H]23)OCO4)cc(OC)c1O [ETOPOSIDE]	Not Active	Not Active	Not Active	Not Active	Not Active	Not Active	Not Active	Not Active	–	Not Active	–	–	–	–
CC(C)(C)NC(=O)[C@H]1CC[C@H]2[C@@H]3CC[C@H]4NC(=O)C=C[C@]4(C)[C@H]3CC[C@]12C [FINASTERIDE]	Not Active	Not Active	Not Active	Not Active	Not Active	Not Active	Not Active	Not Active	–	Not Active	–	–	–	–
COc1ccc2c3c1O[C@H]1C[C@@H](O)C=C[C@@]31CCN(C)C2 [GALANTAMINE]	Not Active	Not Active	Not Active	Not Active	Not Active	Not Active	Not Active	Not Active	–	Not Active	–	–	–	–
CC(C)=CCC/C(C)=C/CO [GERANIOL]	Not Active	Not Active	Not Active	Not Active	Not Active	Not Active	Not Active	Not Active	–	Not Active	–	–	–	–
CC(=O)[C@@]1(O)CC[C@H]2[C@@H]3CCC4=CC(=O)CC[C@]4(C)[C@H]3CC[C@@]21C [HYDROXYPROGESTERONE]	Not Active	Not Active	Not Active	Not Active	Not Active	Not Active	Not Active	Not Active	–	Not Active	–	–	–	–
COC1=C(OC)C(=O)C(CCCCCCCCCCO)=C(C)C1=O [IDEBENONE]	Not Active	Not Active	Not Active	Not Active	Not Active	Not Active	Not Active	Not Active	–	Not Active	–	–	–	–
O=C(N/N=C/c1ccc([N+](=O)[O-])o1)c1cc([N+](=O)[O-])cc([N+](=O)[O-])c1O [NIFURSOL]	Not Active	Not Active	Not Active	Not Active	Not Active	Not Active	Not Active	Not Active	–	Not Active	–	–	–	–
CC(C)NCC(O)COc1cccc2[nH]ccc12 (stereo not drawn) [PINDOLOL]	Not Active	Not Active	Not Active	Not Active	Not Active	Not Active	Not Active	Not Active	–	Not Active	–	–	–	–
CCCNCC(O)COc1ccccc1C(=O)CCc1ccccc1 (stereo not drawn) [PROPAFENONE]	Not Active	–	–	Not Active	Not Active	Not Active	Not Active	Not Active	–	Not Active	–	–	1.74	1.7
CC(C)c1cccc(C(C)C)c1O [PROPOFOL]	Not Active	Not Active	Not Active	Not Active	Not Active	Not Active	Not Active	Not Active	–	Not Active	–	–	–	–
C[C@@H]1O[C@@H](O[C@@H]2C=C3CC[C@@H]4[C@H](CC[C@]5(C)[C@@H](c6ccc(=O)oc6)CC[C@]45O)[C@@]3(C)CC2)[C@H](O)[C@H](O)[C@H]1O [PROSCILLARIDIN]	Not Active	Not Active	Not Active	Not Active	Not Active	Not Active	Not Active	Not Active	–	Not Active	–	–	–	–

From ChEMBL document CHEMBL1909046, “DrugMatrix in vitro pharmacology data”
